Experimental data reported in US20100273189A1, “NON SEPARATION ASSAYS WITH SELECTIVE SIGNAL INHIBITORS” (BECKMAN COULTER, INC., priority 2009, published 2010).
“And” between values parts separate entries of the source, which are not always exact repeats. Identical values can stand only once.

Assays:
Format in all cases: biochemical
HRP = target: T1, HRP (Armoracia rusticana, UniProt P00433); assay: HRP model system on PMMA particles, with and without ascorbic acid; details: 200 μM Ascorbate; for RLU: replicates
T1 construct: purchased Roche Diagnostics, Indianapolis, Ind., USA
T1 sequence (P00433 31-338 limits assumed): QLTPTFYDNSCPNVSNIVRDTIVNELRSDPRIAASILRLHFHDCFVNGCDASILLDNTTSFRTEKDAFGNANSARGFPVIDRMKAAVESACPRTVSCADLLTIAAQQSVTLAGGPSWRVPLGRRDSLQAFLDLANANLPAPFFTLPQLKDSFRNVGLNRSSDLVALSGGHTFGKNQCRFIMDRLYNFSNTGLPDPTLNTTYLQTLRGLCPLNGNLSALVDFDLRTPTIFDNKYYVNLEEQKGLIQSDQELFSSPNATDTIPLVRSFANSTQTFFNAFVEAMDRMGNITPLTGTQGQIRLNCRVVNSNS
Description: In order to further investigate the effect of specific solid phase particles on the assays described herein, a comparison of a variety of particle types was conducted, including silica, polymethylmethacrylate (PMMA). Carboxyl modified PMMA particles (PolyAn GmbH, Berlin) were labeled with AK and biotin as described in Example 3, followed by coating with streptavidin. Silica particles were reacted with 3-aminopropylsiloxane in 1 mM acetic acid to provide an amine reactive group. The amine functional groups were reacted with AK-3 and biotin-LC-sulfoNHS, followed by coating with streptavidin.
Signal generation with Silica and PMMA particles. Assays using the HRP model system, as generally described in Example 1, were conducted on silica particles and PMMA particles, with and without ascorbic acid in the reaction mixture. The assays were run on a modified DxI instrument as described above. The assay conditions consisted of combining 45 μL BUFFER II (with or without ascorbic acid), 25 μL of particle suspension, and 15 μL of sample and incubating for 30 min. Then 100 μL of trigger solution A was added to the reaction vessel and the light intensity was recorded.

CK-MB = CK-MB assay, AK-Ab1 particle + HRP-Ab2 conjugate; details: for RLU: replicates
Description: This example describes a method of detecting CK-MB (Creatine Kinase Myocardial Band) using an AK-Abl particle prepared as set forth in Example 3 and a HRP-Ab2 conjugate prepared as set forth in Example 4 where Ab2 represents an antibody to CK-MB. This method employed ascorbic acid to decrease background signal.
HRP-Ab2 conjugate suspensions were prepared at 1.0 μg/mL and contained either 0 or 1 mM ascorbic acid. Samples consisted of human serum samples with the indicated mounts of CK-MB added or no CK-MB as a control. The test procedure consisted of adding 15 μL of 1.0 μg/mL HRP-Ab2 conjugate and 35 μL of MES buffer containing 1 mg/mL BSA and 1 mg/mL MIgG, pH 5.9 to the reaction vessel. Next, 25 μL of patient serum sample was added, followed by 25 μL of 1.0 mg/mL AK-Abl conjugate suspension thereby obtaining 100 μL of total volume in the reaction vessel. After 15.2 minutes, 100 μL of trigger solution A was added to the reaction vessel and the light intensity was recorded on the modified DxI instrument. Chemiluminescence intensity is expressed in Relative Light Units (RLU).

cTnI = assay: Comparison of particle types in cTnI assay, with and without ascorbic acid; details: 150 μM ascorbic acid; each particle system; highest calibrator level; in words
Description: Signal generation with Silica and PMMA particles. A comparison of Dynal M-280, 3 um CML, 6 um CML, PMMA, silica and LodeStars particles was conducted using the cTnI assay described above. The preparation of each particle, bearing a coating of streptavidin, is described in the foregoing examples. Ascorbic acid, when present, was at 150 μM.

[1] = With Ascorbate, S1, CK-MB 600 pg/mL
[2] = With Ascorbate, S2, CK-MB 3200 pg/mL
[3] = With Ascorbate, S3, CK-MB 9150 pg/mL
[4] = With Ascorbate, S4, CK-MB 26300 pg/mL
[5] = With Ascorbate, S5, CK-MB 94600 pg/mL
[6] = With Ascorbate, S6, CK-MB 268750 pg/mL
[7] = With Ascorbate, S7, CK-MB 1500000 pg/mL

O=C1O[C@H]([C@@H](O)CO)C(O)=C1O [Ascorbic Acid, Ascorbic acid]
Mean RLU (HRP; HRP 0 ng/ml): 20,135 RLU | S/S0 (HRP; HRP 0 ng/ml): 1.0 | RLU (HRP; HRP 0 ng/ml): 20,656 RLU and 19,436 RLU and 20,312 RLU | Mean RLU (HRP; HRP 1 ng/ml): 118,472 RLU | S/S0 (HRP; HRP 1 ng/ml): 5.9 | RLU (HRP; HRP 1 ng/ml): 116,596 RLU and 116,308 RLU and 122,512 RLU | Mean RLU (HRP; HRP 10 ng/ml): 2,061,780 RLU | S/S0 (HRP; HRP 10 ng/ml): 102.4 | RLU (HRP; HRP 10 ng/ml): 2,066,824 RLU and 2,171,080 RLU and 1,947,436 RLU | Mean RLU (HRP; HRP 100 ng/ml): 12,093,261 RLU | S/S0 (HRP; HRP 100 ng/ml): 600.6 | RLU (HRP; HRP 100 ng/ml): 12,257,256 RLU and 11,862,048 RLU and 12,160,480 RLU | Mean RLU (HRP; HRP 250 ng/ml): 12,565,744 RLU | S/S0 (HRP; HRP 250 ng/ml): 624.1 | RLU (HRP; HRP 250 ng/ml): 12,575,032 RLU and 12,552,012 RLU and 12,570,188 RLU | RLU (CK-MB; With Ascorbate (1 mM in HRP-Ab2 conjugate), Buffer, CK-MB 0 pg/mL): 1616 RLU and 1536 RLU and 1592 RLU | Mean RLU (CK-MB; With Ascorbate, Buffer, CK-MB 0 pg/mL): 1581 RLU | Mean RLU (CK-MB; [1]): 883 RLU | RLU (CK-MB; [1]): 948 RLU and 852 RLU and 848 RLU | Mean RLU (CK-MB; [2]): 4051 RLU | S/S1 (CK-MB; [2]): 4.59 | RLU (CK-MB; [2]): 4080 RLU and 3928 RLU and 4144 RLU | Mean RLU (CK-MB; [3]): 13295 RLU | S/S1 (CK-MB; [3]): 15.06 | RLU (CK-MB; [3]): 12756 RLU and 13108 RLU and 14020 RLU | Mean RLU (CK-MB; [4]): 40407 RLU | S/S1 (CK-MB; [4]): 45.78 | RLU (CK-MB; [4]): 41384 RLU and 39448 RLU and 40388 RLU | Mean RLU (CK-MB; [5]): 232489 RLU | S/S1 (CK-MB; [5]): 263.39 | RLU (CK-MB; [5]): 222832 RLU and 249468 RLU and 225168 RLU | Mean RLU (CK-MB; [6]): 1195177 RLU | S/S1 (CK-MB; [6]): 1354.05 | RLU (CK-MB; [6]): 1187736 RLU and 1121256 RLU and 1276540 RLU | Mean RLU (CK-MB; [7]): 3324829 RLU | S/S1 (CK-MB; [7]): 3766.80 | RLU (CK-MB; [7]): 3266772 RLU and 3290024 RLU and 3417692 RLU | S/S0 (cTnI): markedly improved S/S0
